Source: PMC6407917, “Identification of GSK3186899/DDD853651 as a Preclinical Development Candidate for the Treatment of Visceral Leishmaniasis” (Journal of Medicinal Chemistry, 2018)

Assays:
Assay in all cases: biochemical
Parameters in all cases: species or system HEK293/K-562/placenta mixed human extract; Kinobeads chemoproteomic competition binding, quantified by TMT LC-MS/MS, dose response up to 20 uM
NLK = NLK (Homo sapiens, UniProt Q9UBE8)
CLK1 = CLK1 (Homo sapiens, UniProt P49759)
EPHA3 = EPHA3 (Homo sapiens, UniProt P29320)
Sequence of EPHA3 (P29320 whole entry): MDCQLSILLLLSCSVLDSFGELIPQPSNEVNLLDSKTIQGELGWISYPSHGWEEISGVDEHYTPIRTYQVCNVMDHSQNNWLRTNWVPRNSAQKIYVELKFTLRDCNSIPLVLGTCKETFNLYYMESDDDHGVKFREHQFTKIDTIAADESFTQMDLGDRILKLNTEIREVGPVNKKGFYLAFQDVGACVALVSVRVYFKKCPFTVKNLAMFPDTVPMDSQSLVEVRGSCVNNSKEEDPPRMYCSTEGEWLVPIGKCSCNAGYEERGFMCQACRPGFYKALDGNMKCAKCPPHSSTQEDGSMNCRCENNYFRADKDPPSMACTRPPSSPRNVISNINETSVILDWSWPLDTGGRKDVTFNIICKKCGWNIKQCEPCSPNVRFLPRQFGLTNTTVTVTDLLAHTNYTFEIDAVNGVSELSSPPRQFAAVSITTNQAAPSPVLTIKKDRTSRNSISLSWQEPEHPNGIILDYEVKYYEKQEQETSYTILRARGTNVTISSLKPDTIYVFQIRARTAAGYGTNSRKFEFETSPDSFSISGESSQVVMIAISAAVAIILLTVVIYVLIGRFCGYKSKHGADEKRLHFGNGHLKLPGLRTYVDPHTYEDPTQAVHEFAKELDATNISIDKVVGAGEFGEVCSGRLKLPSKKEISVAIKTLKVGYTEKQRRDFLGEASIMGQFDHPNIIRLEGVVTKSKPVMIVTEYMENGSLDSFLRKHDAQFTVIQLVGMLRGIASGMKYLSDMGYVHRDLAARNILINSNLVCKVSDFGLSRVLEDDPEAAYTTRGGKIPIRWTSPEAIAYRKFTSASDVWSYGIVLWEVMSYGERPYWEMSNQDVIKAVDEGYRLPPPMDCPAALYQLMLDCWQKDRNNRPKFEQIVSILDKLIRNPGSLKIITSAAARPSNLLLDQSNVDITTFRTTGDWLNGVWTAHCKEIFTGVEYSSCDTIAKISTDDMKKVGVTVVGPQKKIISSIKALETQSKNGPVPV

MASTL = MASTL (Homo sapiens, UniProt Q96GX5)
IKBKE = IKBKE (Homo sapiens, UniProt Q14164)
MAPK9 = MAPK9 (Homo sapiens, UniProt P45984)
MAP3K1 = MAP3K1 (Homo sapiens, UniProt Q13233)
Sequence of MAP3K1 (Q13233 whole entry): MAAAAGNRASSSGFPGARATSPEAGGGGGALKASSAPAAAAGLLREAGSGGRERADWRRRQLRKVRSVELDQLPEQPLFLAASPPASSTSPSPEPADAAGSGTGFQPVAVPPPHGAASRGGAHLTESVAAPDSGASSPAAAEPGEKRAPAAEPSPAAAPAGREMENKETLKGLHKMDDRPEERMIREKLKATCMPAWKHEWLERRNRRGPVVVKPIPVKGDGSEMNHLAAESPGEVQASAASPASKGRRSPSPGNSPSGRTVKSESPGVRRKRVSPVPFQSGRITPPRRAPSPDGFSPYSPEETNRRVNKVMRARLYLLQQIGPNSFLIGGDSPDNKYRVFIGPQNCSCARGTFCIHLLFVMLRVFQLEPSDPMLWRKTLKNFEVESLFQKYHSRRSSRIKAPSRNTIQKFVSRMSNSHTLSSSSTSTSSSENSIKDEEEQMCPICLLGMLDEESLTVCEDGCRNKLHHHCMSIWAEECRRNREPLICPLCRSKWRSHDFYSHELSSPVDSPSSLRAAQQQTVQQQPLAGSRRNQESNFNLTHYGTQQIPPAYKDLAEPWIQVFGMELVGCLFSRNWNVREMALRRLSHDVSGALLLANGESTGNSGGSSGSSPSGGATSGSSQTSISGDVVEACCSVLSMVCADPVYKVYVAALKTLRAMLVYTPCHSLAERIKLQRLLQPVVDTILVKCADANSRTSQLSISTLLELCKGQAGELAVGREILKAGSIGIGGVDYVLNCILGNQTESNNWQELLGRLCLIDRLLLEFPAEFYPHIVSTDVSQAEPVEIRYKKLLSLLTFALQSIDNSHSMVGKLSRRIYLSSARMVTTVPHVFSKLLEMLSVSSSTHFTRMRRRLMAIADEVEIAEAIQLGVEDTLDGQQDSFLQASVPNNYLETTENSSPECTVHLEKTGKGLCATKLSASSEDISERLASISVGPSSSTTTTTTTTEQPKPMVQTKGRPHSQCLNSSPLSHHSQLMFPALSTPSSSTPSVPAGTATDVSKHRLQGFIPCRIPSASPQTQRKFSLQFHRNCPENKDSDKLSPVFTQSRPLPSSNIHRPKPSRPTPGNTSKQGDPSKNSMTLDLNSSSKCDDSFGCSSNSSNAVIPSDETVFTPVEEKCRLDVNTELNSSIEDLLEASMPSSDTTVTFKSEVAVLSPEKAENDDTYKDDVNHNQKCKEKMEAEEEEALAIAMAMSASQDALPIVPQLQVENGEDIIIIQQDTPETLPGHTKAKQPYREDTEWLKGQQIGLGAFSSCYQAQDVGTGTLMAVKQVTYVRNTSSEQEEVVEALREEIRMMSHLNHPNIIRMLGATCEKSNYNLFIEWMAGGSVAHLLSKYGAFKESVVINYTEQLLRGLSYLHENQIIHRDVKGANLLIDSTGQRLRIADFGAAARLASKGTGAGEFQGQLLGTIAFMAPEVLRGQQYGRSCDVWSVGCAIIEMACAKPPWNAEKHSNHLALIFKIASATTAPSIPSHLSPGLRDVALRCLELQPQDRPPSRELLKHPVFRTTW

PIK3C3 = PIK3C3 (Homo sapiens, UniProt Q8NEB9)
MAP3K2 = MAP3K2 (Homo sapiens, UniProt Q9Y2U5)
MAPK7 = MAPK7 (Homo sapiens, UniProt Q13164)
MAP3K4 = MAP3K4 (Homo sapiens, UniProt Q9Y6R4)
Sequence of MAP3K4 (Q9Y6R4 whole entry): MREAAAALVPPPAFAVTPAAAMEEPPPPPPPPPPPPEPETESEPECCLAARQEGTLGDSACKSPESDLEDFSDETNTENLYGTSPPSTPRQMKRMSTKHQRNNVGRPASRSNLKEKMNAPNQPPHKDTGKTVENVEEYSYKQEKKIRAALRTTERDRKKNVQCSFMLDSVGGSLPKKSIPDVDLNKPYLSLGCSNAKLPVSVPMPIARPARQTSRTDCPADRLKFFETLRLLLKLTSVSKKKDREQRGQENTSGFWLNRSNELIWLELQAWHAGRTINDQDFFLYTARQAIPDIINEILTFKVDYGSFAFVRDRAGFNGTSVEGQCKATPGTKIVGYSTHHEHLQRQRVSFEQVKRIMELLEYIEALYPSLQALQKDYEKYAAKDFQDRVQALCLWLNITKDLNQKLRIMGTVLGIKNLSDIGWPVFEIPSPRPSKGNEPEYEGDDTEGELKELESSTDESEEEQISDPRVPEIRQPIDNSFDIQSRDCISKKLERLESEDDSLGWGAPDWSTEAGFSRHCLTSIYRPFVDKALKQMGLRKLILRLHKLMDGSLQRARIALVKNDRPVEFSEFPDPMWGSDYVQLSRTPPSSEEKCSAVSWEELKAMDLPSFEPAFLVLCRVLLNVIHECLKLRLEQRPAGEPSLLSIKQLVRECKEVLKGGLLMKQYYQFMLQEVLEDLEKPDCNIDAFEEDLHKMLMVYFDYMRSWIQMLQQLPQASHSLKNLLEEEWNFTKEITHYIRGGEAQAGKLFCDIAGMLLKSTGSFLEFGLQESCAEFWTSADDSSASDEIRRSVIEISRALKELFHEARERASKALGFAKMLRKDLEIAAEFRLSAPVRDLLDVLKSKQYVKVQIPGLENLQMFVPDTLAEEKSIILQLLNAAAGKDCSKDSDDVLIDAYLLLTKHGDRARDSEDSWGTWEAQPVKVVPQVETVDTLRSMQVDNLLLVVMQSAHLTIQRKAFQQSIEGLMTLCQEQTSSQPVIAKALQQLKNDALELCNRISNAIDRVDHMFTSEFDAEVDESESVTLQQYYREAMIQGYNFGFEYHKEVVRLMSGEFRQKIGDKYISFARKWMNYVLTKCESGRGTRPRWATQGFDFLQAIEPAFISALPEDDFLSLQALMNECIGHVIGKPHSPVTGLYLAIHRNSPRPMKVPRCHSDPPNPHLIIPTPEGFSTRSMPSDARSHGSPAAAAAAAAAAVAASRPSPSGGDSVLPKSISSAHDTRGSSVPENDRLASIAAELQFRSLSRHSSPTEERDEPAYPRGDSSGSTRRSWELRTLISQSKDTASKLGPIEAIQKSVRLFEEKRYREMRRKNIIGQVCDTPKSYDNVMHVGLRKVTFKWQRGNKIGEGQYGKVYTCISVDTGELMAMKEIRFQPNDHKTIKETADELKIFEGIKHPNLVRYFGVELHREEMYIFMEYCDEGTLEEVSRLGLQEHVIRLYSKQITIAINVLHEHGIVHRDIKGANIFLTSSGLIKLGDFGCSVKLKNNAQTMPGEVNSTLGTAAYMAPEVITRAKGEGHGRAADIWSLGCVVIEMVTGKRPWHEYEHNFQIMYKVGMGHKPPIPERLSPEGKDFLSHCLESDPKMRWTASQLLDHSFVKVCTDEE

RIPK4 = RIPK4 (Homo sapiens, UniProt P57078)
ACVR1B = ACVR1B (Homo sapiens, UniProt P36896)
EIF2AK4 = EIF2AK4 (Homo sapiens, UniProt Q9P2K8)
CSNK2A2 = CSNK2A2 (Homo sapiens, UniProt P19784)
Sequence of CSNK2A2 (P19784 whole entry): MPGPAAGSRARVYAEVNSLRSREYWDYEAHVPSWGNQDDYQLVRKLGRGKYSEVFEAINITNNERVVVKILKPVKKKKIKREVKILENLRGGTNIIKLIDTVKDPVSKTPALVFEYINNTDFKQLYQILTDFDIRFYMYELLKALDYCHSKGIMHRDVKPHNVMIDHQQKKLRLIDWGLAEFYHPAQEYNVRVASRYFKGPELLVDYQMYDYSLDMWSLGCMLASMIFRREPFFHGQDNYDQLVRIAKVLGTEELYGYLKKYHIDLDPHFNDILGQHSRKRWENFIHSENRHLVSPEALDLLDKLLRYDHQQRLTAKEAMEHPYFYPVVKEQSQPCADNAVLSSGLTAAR

AURKB = AURKB (Homo sapiens, UniProt Q96GD4)
CSNK1D = CSNK1D (Homo sapiens, UniProt P48730)
CAMK1 = CAMK1 (Homo sapiens, UniProt Q14012)
CAMK2B = CAMK2B (Homo sapiens, UniProt Q13554)
MELK = MELK (Homo sapiens, UniProt Q14680)
TAOK2 = TAOK2 (Homo sapiens, UniProt Q9UL54)

Sequence of NLK (Q9UBE8 whole entry): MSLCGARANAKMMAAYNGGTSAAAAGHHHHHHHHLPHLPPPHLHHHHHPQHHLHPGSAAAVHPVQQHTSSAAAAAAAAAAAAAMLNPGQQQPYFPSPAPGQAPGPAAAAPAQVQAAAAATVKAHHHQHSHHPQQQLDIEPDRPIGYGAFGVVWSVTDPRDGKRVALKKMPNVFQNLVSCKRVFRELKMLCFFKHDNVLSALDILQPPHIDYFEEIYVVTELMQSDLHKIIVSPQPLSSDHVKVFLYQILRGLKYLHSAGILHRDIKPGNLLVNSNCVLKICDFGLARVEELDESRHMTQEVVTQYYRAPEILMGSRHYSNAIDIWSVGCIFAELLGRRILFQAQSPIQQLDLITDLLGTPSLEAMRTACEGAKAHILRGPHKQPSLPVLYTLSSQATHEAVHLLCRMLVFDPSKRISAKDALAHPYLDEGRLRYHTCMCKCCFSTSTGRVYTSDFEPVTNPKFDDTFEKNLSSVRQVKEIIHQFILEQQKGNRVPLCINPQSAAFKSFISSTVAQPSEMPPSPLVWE

For `COc1nc(N[C@H]2CC[C@H](NS(=O)(=O)CC(C)C)CC2)nc2[nH]nc(N3CCOC[C@H]3C)c12` [compound 39, N-(trans-4-((4-Methoxy-3-((R)-3-methylmorpholino)-1H-pyrazolo[3,4-d]pyrimidin-6-yl)amino)cyclohexyl)-2-methylpropane-1-sulfonamide], the IC50 (NLK) was 3.5 µM, the IC50 (CLK1) was no less than 20 µM and the IC50 (EPHA3) was no less than 20 µM. It also gave an IC50 (MASTL) of no less than 20 µM, an IC50 (IKBKE) of no less than 20 µM and an IC50 (MAPK9) of no less than 20 µM. The IC50 (MAP3K1) was no less than 20 µM, the IC50 (PIK3C3) was no less than 20 µM and the IC50 (MAP3K2) was no less than 20 µM. It also gave an IC50 (MAPK7) of no less than 20 µM, an IC50 (MAP3K4) of no less than 20 µM and an IC50 (RIPK4) of no less than 20 µM. It also gave an IC50 (ACVR1B) of no less than 20 µM, an IC50 (EIF2AK4) of no less than 20 µM and an IC50 (CSNK2A2) of no less than 20 µM. For the same molecule, the IC50 (AURKB) was no less than 20 µM, the IC50 (CSNK1D) was no less than 20 µM and the IC50 (CAMK1) was no less than 20 µM. It also gave an IC50 (CAMK2B) of no less than 20 µM, an IC50 (MELK) of no less than 20 µM and an IC50 (TAOK2) of no less than 20 µM.
